Laboratory results as given in patent US20230226040A1, “COMBINATION THERAPY COMPRISING AN FGFR INHIBITOR AND A KRAS INHIBITOR” (Incyte Corporation, priority 2021, published 2023).

Key:
Type in all cases: cell-based
A427 cells = experiment: siRNA FGFR knockdown plus KRAS G12D inhibitor, Cell Titer Glo proliferation; details: FGFR1 isoform knocked down; 120 h
Method: To further evaluate the KRAS/FGFR combination mechanism of action, siRNA FGFR knockdown experiments were conducted in A427 cells, followed by treatment with KRAS G12D inhibitors Compound 5, Compound 6, and Compound 7. Knockdown efficiency was assessed by Western blot (FIG. 13A) and its effect was measured by cell proliferation inhibition (FIGS. 13B-G). Initially, the effect of single FGFR isoforms knockdown in combination with KRAS G12D inhibitors Compound 5 (FIG. 13B), Compound 6 (FIG. 13D) and Compound 7 (FIG. 13F) was assessed. […] In addition, combining FGFR1 knockdown with knockdown of additional FGFR isoforms further increased the effect of KRAS G12D inhibitors (FIGS. 13C, E and G)
(§1) The lyophilized siRNA pools or individuals (Dharmacon ON-TARGET plus siRNA from Horizon Discovery) were reconstituted by combining 1× siRNA buffer (200 μL) with lyophilized siRNA (20 nmol); or combining lx siRNA buffer (100 μL) with lyophilized siRNA (10 nmol). Dharmafect Reagent 1 was prepared at a 1:200 dilution in 1× siRNA buffer. One tube of diluted reagent was prepared for each siRNA dilution. To each tube, the appropriate siRNA was added to Dharmafect Reagent 1 at a 1:400 dilution. The prepared siRNA reagent (25 μL per well) was added to the appropriate number of wells on a 96-well clear bottom Greiner plate and incubated at room temperature for 30 min.
For plating in 96-well pates, 2000 A427 cells per well in 100 !IL of medium were prepared. The prepared cells (100 !IL per well) were added to each well of the 96-well plate and incubated at 48 h.
Compound plates were prepared with a compound starting concentration of 5 mM in a 3-fold dilution. Following 48 h transfection incubation, the appropriate compounds were added to the 96-well plate at a final starting concentration of 5μM in 3-fold dilution (11 point dose response curve). After addition of the compounds, the 96-well plates were incubated at 37° C. for 120 h. […] The plates were tapped gently and luminescence was read on a Pherastar microplate reader.

SW-837 = experiment: 5-day Cell Titer Glo combination matrix, Bliss score; details: SW-837 (CRC, Epithelial); KRAS inhibitor in combination with pemigatinib; 5 days
Method: (§2) Cells were seeded in RPMI medium with 10% HI FBS at a density of 500 cells/well in Greiner, white, clear bottom, 384-well tissue culture treated plates containing 10×10 combination matrices of compound. Plates were incubated at 37° C., 5% CO2 for 5 days. On day 5, Cell Titer Glo reagent was added to the plates and ATP luminescence was detected using a Pherastar FSX reader. The synergy score for the combination effect was calculated using a Bliss score model where the Bliss score=Yab-(Ya+Yb−(YaYb))×100, where Ya and Yb are the monotherapies. Bliss scores >20 are strongly synergistic and a higher Bliss scores indicates a higher level of synergism.
(§3) Cells were seeded in RPMI medium with 10% HI FBS at a density of 500 cells/well in Greiner, white, clear bottom, 384-well tissue culture treated plates containing 10×10 combination matrices of compound. Plates were incubated at 37° C., 5% CO2 for 5 days. On day 5, Cell Titer Glo reagent was added to the plates and ATP luminescence was detected using a Pherastar FSX reader. The synergy score for the combination effect was calculated using a Bliss score model where the Bliss score=Yab−(Ya+Yb−(YaYb))×100, where Ya and Yb are the monotherapies. Bliss scores >20 are strongly synergistic and a higher Bliss scores indicates a higher level of synergism.

SW-1573 = experiment: as above; details: SW-1573 (Lung, Mesenchymal), 5 days
Method: as §2
(§4) Cells were seeded in RPMI medium with 10% HI FBS at a density of 500 cells/well in Greiner, white, clear bottom, 384-well tissue culture treated plates containing 10×10 combination matrices of compound. Plates were incubated at 37° C., 5% CO2 for 5 days. On day 5, Cell Titer Glo reagent was added to the plates and ATP luminescence was detected using a Pherastar FSX reader. Synergy score for the combination effect is calculated using a Bliss score model where the Bliss score=Yab−(Ya+Yb−(YaYb))×100, where Ya and Yb are the monotherapies. Bliss scores >20 are strongly synergistic and a higher Bliss scores indicates a higher level of synergism.
as §3

Calu-1 = experiment: as above; details: Calu-1 (Lung, Mesenchymal); KRAS inhibitor in combination with pemigatinib; 5 days
Method: as §2

H1792 = experiment: as above; details: H1792 (Lung, Mesenchymal), 5 days
Method: as §2, §4, §3

H358 = experiment: as above; details: H358 (Lung, Epithelial), 5 days
Method: as §2, §4, §3

LU99 cells = experiment: siRNA FGFR knockdown plus KRAS G12C inhibitor, Cell Titer Glo proliferation; details: in the absence of FGFR1 or FGFR4; 120 h
Method: Knockdown efficiency was assessed by Western blot and its effect was measured by cell proliferation inhibition.
as §1, with “combining 1×” for “combining lx”, “in 1X” for “in 1×”, “([…]” for “(25 μL”
For plating in 96-well pates, 2000 LU99 cells per well in 100 μL of medium were prepared. The prepared cells (100 μL per well) were added to each well of the 96-well plate and incubated at 48 h.
Compound plates were prepared with a compound starting concentration of 5 mM in a 3-fold dilution. Following 48 h transfection incubation, the appropriate compounds were added to the 96-well plate at a final starting concentration of 5 μM in 3-fold dilution (11 point dose response curve). After addition of the compounds, the 96-well plates were incubated at 37° C. for 120 h. After this time, Cell Titer Glo reagent is reconstituted and 100 μL of reagent was added per well. The plates were tapped gently and luminescence was read on a Pherastar microplate reader.

HCC-44 = experiment: 5-day Cell Titer Glo combination matrix, Bliss score; details: HCC-44 (Lung, Mesenchymal); KRAS inhibitor in combination with pemigatinib; 5 days
Method: as §2, §3

LU-99 = experiment: as above; details: LU-99 (Lung, Mesenchymal); FGFR inhibitor in combination with Cmpd 3; 5 days
Method: as §4, §3

[1] = KRAS inhibitor in combination with pemigatinib
[2] = FGFR inhibitor in combination with Cmpd 3

| Compound | inhibition of A427 cell proliferation after siRNA knockdown (A427 cells) | Avg. Bliss Score (SW-1573; [2]) | Avg. Bliss Score (H1792; [2]) | Avg. Bliss Score (LU-99) | Avg. Bliss Score (H358; [2]) | other results |
| --- | --- | --- | --- | --- | --- | --- |
| CC(=O)N1CCC[C@@H]1c1cc2c(O[C@@H](C)[C@@H]3CCCN3C)nc3c(F)c(-c4cccc5c4C(C#N)CCC5)c(C)cc3c2n1[C@H]1[C@H]2CN[C@@H]1C2 (stereo partly shown) [Compound 6] | higher inhibition in proliferation compared to controls |  |  |  |  |  |
| CN(C)C1(C)CN(c2nc3c(F)c(-c4ccc(F)c5cccnc45)c(C(F)(F)F)cc3c3c2nnn3[C@H]2CCN(C(=O)/C=C/CF)[C@H](CC#N)C2)C1 [Compound 3, 2-((2S,4S)-4-(4-(3-(dimethylamino)-3-methylazetidin-1-yl)-6-fluoro-7-(5-fluoroquinolin-8-yl)-8-(trifluoromethyl)-1H-[1,2,3]triazolo[4,5-c]quinolin-1-yl)-1-((E)-4-fluorobutenoyl)piperidin-2-yl)acetonitrile] |  |  |  |  |  | Avg. Bliss Score (SW-837): 0.9; Avg. Bliss Score (SW-1573; [1]): 18.6; Avg. Bliss Score (Calu-1): 8.7; Avg. Bliss Score (H1792; [1]): 28.5; Avg. Bliss Score (H358; [1]): 3.8; inhibition of LU99 cell proliferation after siRNA knockdown (LU99 cells): higher inhibition in proliferation; Avg. Bliss Score (HCC-44): 5.8 |
| CCOc1nc2c(F)c(-c3cc(O)cc4ccccc34)c(CCC#N)cc2c2c1cc(CN1CCN(CC)CC1=O)n2[C@H]1[C@H]2CN[C@@H]1C2 [Compound 7] | higher inhibition in proliferation compared to controls |  |  |  |  |  |
| C=CC(=O)N1CC[C@H](n2ncc3c(N4CC(N(C)C)C4)nc4c(F)c(-c5c(C)c(Cl)cc6[nH]ncc56)c(Cl)cc4c32)C[C@H]1CC#N [Compound 4, 2-((2S,4S)-1-acryloyl-4-(8-chloro-7-(6-chloro-5-methyl-1H-indazol-4-yl)-4-(3-(dimethylamino)azetidin-1-yl)-6-fluoro-1H-pyrazolo[4,3-c]quinolin-1-yl)piperidin-2-yl)acetonitrile] |  |  |  |  |  | Avg. Bliss Score (SW-837): −11.7; Avg. Bliss Score (SW-1573; [1]): 17; Avg. Bliss Score (Calu-1): −9.9; Avg. Bliss Score (H1792; [1]): 30; Avg. Bliss Score (H358; [1]): −3; Avg. Bliss Score (HCC-44): 4.7 |
| C=CC(=O)N1CC[C@H](n2nc(C#Cc3cc(OC)cc(OC)c3)c3c(N)ncnc32)C1 [TAS-120] |  | 6.6 | 17.4 | 22 | 3.3 |  |
| CCN1CCN(c2ccc(Nc3cc(N(C)C(=O)Nc4c(Cl)c(OC)cc(OC)c4Cl)ncn3)cc2)CC1 [BGJ398] |  | 7.5 | 11.2 | 31.9 | −0.8 |  |
| Cc1cc2c(-n3cncn3)nc3c(F)c(-c4cc(O)cc5ccc(F)cc45)c(CCC#N)cc3c2n1[C@H]1[C@H]2CN[C@@H]1C2 [Compound 5, 3-(1-((1R,4R,5S)-2-Azabicyclo[2.1.1]hexan-5-yl)-6-fluoro-7-(7-fluoro-3-hydroxynaphthalen-1-yl)-2-methyl-4-(1H-1,2,4-triazol-1-yl)-1H-pyrrolo[3,2-c]quinolin-8-yl)propanenitrile] | higher inhibition in proliferation compared to controls |  |  |  |  |  |
| COc1cc(OC)cc(N(CCNC(C)C)c2ccc3ncc(-c4cnn(C)c4)nc3c2)c1 [Erdafitinib] |  | 7.9 | 12.9 | 34.7 | 4.4 |  |
